{
  "source": "patent US12421276B2",
  "about": "(priority 2016, dated 2025)",
  "type_in_all_cases": "in vitro ADME",
  "key": {"[1]": {"test": "Metabolic stability in simulated gastric fluid (SGF), pH 1.2, with or without pepsin", "settings": "5 μM, 37° C.", "procedure": "(§1) Metabolic Stability in SIF and SGF (Simulated Intestinal and Gastric Fluid)\nBuffer 1=SGF without enzyme\nBuffer 2=SGF with 0.32% pepsin\n(§2) SIF was prepared freshly with 8.7 mM NaOH, 28.65 mM NaH2PO4, 105.85 mM NaCl, with a final pH of 6.8. SGF was prepared freshly with 34.2 mM NaCl, with a final pH of 1.2. Enzymes such as pepsin or pancreatin were added to some buffers. Human and rat plasma (K2 EDTA) were purchased from BioreclamationIVT.\n(§3) Compounds were dissolved as 1.5 mM DMSO stocks. Compounds were transferred to SIF, SGF, or plasma at 5 μM on a 96-well deep well plate. After mixing, samples were transferred to several 96-well plates (25 μL/well), and incubated at 37° C. The extent of metabolism was calculated as the disappearance of the test compound, compared to the 0-min control reaction incubations. Candesartan Cilexetil and omeprazole were included as positive controls for SIF and SGF, respectively, to verify assay performance.\n(§4) At each of the time points, 150 μL of quench solution (100% acetonitrile with 0.1% formic acid) with internal standard (bucetin for positive ESI mode and warfarin for negative ESI mode) was transferred to each well. Plates were sealed and centrifuged at 4° C. for 15 minutes at 4000 rpm. The supernatant was transferred to fresh plates for LC/MS/MS analysis.\n(§5) Elution conditions are detailed in the table below.\n(§6) Initial rates of the clearance of test compounds were calculated using linear regression of semi-log plot of % remaining of compounds versus time. The elimination rate constant (equals to −slope) of the linear regression was then used to determine t½ values."}, "[2]": {"test": "Metabolic stability in simulated intestinal fluid (SIF), pH 6.8, with or without pancreatin", "settings": "5 μM, 37° C.", "procedure": "as §1\nBuffer 3=SIF without enzyme\nBuffer 4=SIF with 1% pancreatin\nas §2, §3, §4, §5, §6"}, "[3]": {"test": "Plasma stability study, rat plasma", "settings": "Rat plasma, 1 μM, 37° C.", "procedure": "(§7) Human and rat plasma (K2 EDTA) were obtained from Bioreclamation.\n(§8) Compounds were dissolved as 0.3 mM DMSO stocks. Compounds were transferred to the plasma at 1 μM on a 96-well deep well plate. After mixing, samples were transferred to several 96-well plates (25 μL/well), and incubated at 37° C. The extent of metabolism was calculated as the disappearance of the test compound, compared to the 0-min control reaction incubations. Propantheline was included as a positive control to verify assay performance.\nas §4, with “(50% acetonitrile, 50% methanol” for “(100% acetonitrile”, “0.05%” for “0.1%”\nas §5, §6"}, "[4]": {"test": "Plasma stability study, human plasma", "settings": "Human plasma, 1 μM, 37° C.", "procedure": "as §7, §8\nas §4, with “(50% acetonitrile, 50% methanol” for “(100% acetonitrile”, “0.05%” for “0.1%”\nas §5, §6"}},
  "note": "Where a SMILES comes first, the peptide text is derived from it. [ ]: non-standard residue; d: D form. The star is where a group is joined. pY = N[CH](Cc1ccc(OP(=O)(O)O)cc1)C(=O)O; Hexanoyl = CCCCCC(=O)*; Ahx = NCCCCCC(=O)O",
  "data": [
    {"molecule": "CCCCCC(=O)NC(Cc1ccc(OP(=O)([O-])O)cc1)C(=O)NC(C(=O)NCCCCCC(N)=O)C(C)CC.[Na+]", "note": "(stereo not drawn) [Compound A30] (Hexanoyl-[pY]-Ile-[Ahx]-NH2; configuration not given here)", "values": [
      {"measurement": "SGF Stability (pH 1.2) Half-Life (min)", "setting": "[1]; +Pepsin (0.32%)", "value": 248.3, "unit": "min"},
      {"measurement": "SGF Stability (pH 1.2) 0 min", "setting": "[1]; +Pepsin (0.32%)", "value": 100, "unit": "%"},
      {"measurement": "SGF Stability (pH 1.2) 60 min", "setting": "[1]; +Pepsin (0.32%)", "value": 95, "unit": "%"},
      {"measurement": "SGF Stability (pH 1.2) 120 min", "setting": "[1]; +Pepsin (0.32%)", "value": 64, "unit": "%"},
      {"measurement": "SGF Stability (pH 1.2) 240 min", "setting": "[1]; +Pepsin (0.32%)", "value": 54, "unit": "%"},
      {"measurement": "SGF Stability (pH 1.2) Half-Life (min)", "setting": "[1]; −Pepsin", "value": 1713.6, "unit": "min"},
      {"measurement": "SGF Stability (pH 1.2) 0 min", "setting": "[1]; −Pepsin", "value": 100, "unit": "%"},
      {"measurement": "SGF Stability (pH 1.2) 60 min", "setting": "[1]; −Pepsin", "value": 95, "unit": "%"},
      {"measurement": "SGF Stability (pH 1.2) 120 min", "setting": "[1]; −Pepsin", "value": 98, "unit": "%"},
      {"measurement": "SGF Stability (pH 1.2) 240 min", "setting": "[1]; −Pepsin", "value": 89, "unit": "%"},
      {"measurement": "SIF Stability (pH 6.8) Half-Life (min)", "setting": "[2]; +Pancreatin (1%)", "value": 156.6, "unit": "min"},
      {"measurement": "SIF Stability (pH 6.8) 0 min", "setting": "[2]; +Pancreatin (1%)", "value": 100, "unit": "%"},
      {"measurement": "SIF Stability (pH 6.8) 60 min", "setting": "[2]; +Pancreatin (1%)", "value": 70, "unit": "%"},
      {"measurement": "SIF Stability (pH 6.8) 120 min", "setting": "[2]; +Pancreatin (1%)", "value": 51, "unit": "%"},
      {"measurement": "SIF Stability (pH 6.8) 240 min", "setting": "[2]; +Pancreatin (1%)", "value": 34, "unit": "%"},
      {"measurement": "SIF Stability (pH 6.8) Half-Life (min)", "setting": "[2]; −Pancreatin", "value": 68.4, "unit": "min"},
      {"measurement": "SIF Stability (pH 6.8) 0 min", "setting": "[2]; −Pancreatin", "value": 100, "unit": "%"},
      {"measurement": "SIF Stability (pH 6.8) 60 min", "setting": "[2]; −Pancreatin", "value": 43, "unit": "%"},
      {"measurement": "SIF Stability (pH 6.8) 120 min", "setting": "[2]; −Pancreatin", "value": 22, "unit": "%"},
      {"measurement": "SIF Stability (pH 6.8) 240 min", "setting": "[2]; −Pancreatin", "value": 8, "unit": "%"},
      {"measurement": "Plasma Stability Half-Life", "setting": "[3]", "value": 21.79, "unit": "h"},
      {"measurement": "Plasma Stability (% Parent Remaining) 0 min", "setting": "[3]; 0 min", "value": 100, "unit": "%"},
      {"measurement": "Plasma Stability (% Parent Remaining) 60 min", "setting": "[3]; 60 min", "value": 88, "unit": "%"},
      {"measurement": "Plasma Stability (% Parent Remaining) 120 min", "setting": "[3]; 120 min", "value": 87, "unit": "%"},
      {"measurement": "Plasma Stability (% Parent Remaining) 240 min", "setting": "[3]; 240 min", "value": 86, "unit": "%"},
      {"measurement": "Plasma Stability Half-Life", "setting": "[4]", "value": 1.4, "unit": "h"},
      {"measurement": "Plasma Stability (% Parent Remaining) 0 min", "setting": "[4]; 0 min", "value": 100, "unit": "%"},
      {"measurement": "Plasma Stability (% Parent Remaining) 60 min", "setting": "[4]; 60 min", "value": 36, "unit": "%"},
      {"measurement": "Plasma Stability (% Parent Remaining) 120 min", "setting": "[4]; 120 min", "value": 20, "unit": "%"},
      {"measurement": "Plasma Stability (% Parent Remaining) 240 min", "setting": "[4]; 240 min", "value": 12, "unit": "%"}
    ]}
  ]
}
